Measurements from patent US6355238B1, “Specific immune system modulation” (Yale University, priority 1992, dated 2002).

What was measured:
[1] = compared with 8-MOP; Calzavara-Pinton et al. 1992; cited from earlier work
Chick ovalbumin = target: T1, Chick ovalbumin (Gallus gallus, UniProt P01012); assay: Covalent photobinding of 8-MOP to ovalbumin with visible light; format: binding
T1 sequence (P01012 1-386): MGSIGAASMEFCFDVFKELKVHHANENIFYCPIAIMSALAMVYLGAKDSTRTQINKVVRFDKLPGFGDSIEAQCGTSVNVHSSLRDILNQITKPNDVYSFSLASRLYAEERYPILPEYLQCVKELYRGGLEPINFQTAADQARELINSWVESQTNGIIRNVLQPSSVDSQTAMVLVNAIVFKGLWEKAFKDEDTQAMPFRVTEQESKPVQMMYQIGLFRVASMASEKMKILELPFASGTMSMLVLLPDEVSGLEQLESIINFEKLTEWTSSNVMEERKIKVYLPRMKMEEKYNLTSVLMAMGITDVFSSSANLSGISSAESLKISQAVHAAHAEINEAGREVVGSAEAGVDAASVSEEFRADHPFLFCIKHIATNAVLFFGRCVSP
Experimental: Approximately 0.1% photoadducts were observed per amino acid.
Ovalbumin (0.4 mg/ml) and 8-MOP (0.04 mg/ml) containing trace amounts of [^3H]8-MOP) were exposed to visible radiation (419 nm) for 60 min. and thereafter, dialyzed exhaustively using distilled water in a microdialyzer (BRL, Bethesda, Md.). An aliquot of the sample was analyzed by liquid scintillation analysis.

Lysozyme = Lysozyme (Gallus gallus, UniProt P00698); assay: Covalent photobinding of 8-MOP to lysozyme (liquid scintillation, [3H]8-MOP); format: binding; settings: lysozyme 0.4 mg/ml, 8-MOP 0.04 mg/ml
Experimental: Lysozyme (0.4 mg/ml) and 8-MOP (0.04 mg/ml) including trace amounts of [3H]8-MOP) were exposed to UVA (3.6 mW/cm^2; filtered with window glass to remove UVB). Aliquots were taken after 15, 30, 60 and 120 min. UVA exposure and were dialyzed exhaustively using distilled water in a microdialyzer (BRL, Bethesda, Md.). An aliquot of each sample was analyzed by liquid scintillation analysis to determine the extent of covalent photobinding of 8-MOP.

Sequence of Lysozyme (P00698 19-147): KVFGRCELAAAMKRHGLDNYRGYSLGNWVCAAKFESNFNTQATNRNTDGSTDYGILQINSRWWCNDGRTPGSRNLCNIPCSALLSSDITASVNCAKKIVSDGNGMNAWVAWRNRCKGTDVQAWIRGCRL

SMILES	efficacy in the treatment of psoriasis [1]	photoadducts per amino acid (Chick ovalbumin; visible light (419 nm))	extent of covalent photobinding of 8-MOP to ovalbumin (Chick ovalbumin; visible radiation (419 nm) 60 min, ovalbumin 0.4 mg/ml, 8-MOP 0.04 mg/ml)	moles 8-MOP/moles Lysozyme (Lysozyme; 0 min UVA exposure)	moles 8-MOP/moles Lysozyme (Lysozyme; 30 min UVA exposure (3.6 mW/cm^2))	moles 8-MOP/moles Lysozyme (Lysozyme; 60 min UVA exposure (3.6 mW/cm^2))	moles 8-MOP/moles Lysozyme (Lysozyme; 120 min UVA exposure (3.6 mW/cm^2))
COc1c2ccoc2cc2oc(=O)ccc12 [5-MOP, 5-methoxypsoralen]	not as efficacious as 8-MOP						
COc1c2occc2cc2ccc(=O)oc12 [8-MOP, 8-methoxypsoralen]		Approximately 0.1%	approximately 0.039 8-MOP molecules/ovalbumin molecule	0 moles 8-MOP/moles Lysozyme	0.90 moles 8-MOP/moles Lysozyme	2.04 moles 8-MOP/moles Lysozyme	1.86 moles 8-MOP/moles Lysozyme
